This note sets out measurements from US20100311748A1, “HETEROCYCLIC AMIDES USEFUL FOR THE TREATMENT OF CANCER AND PSORIASIS” (ASTRAZENECA AB, priority 2007, published 2010).

By inhibition is commonly meant the change of the read-out against control, counted positive when it falls. A lower inhibition goes with a response near the control.

This assay concerns Hedgehog pathway. Put plainly: Hedgehog Pathway Cellular Differentiation Assay (alkaline phosphatase production in C3H10T1/2 cells with Shh ligand). The class given is cell-based. The conditions noted are these: Mus musculus, C3H 10T1/2, 3 μM compound, Shh ligand conditioned media, 72 h, alkaline phosphatase. Here is the method:
Hedgehog Pathway Cellular Differentiation Assay The ability of compounds of the invention to inhibit the Hedgehog pathway can be determined by the following cell differentiation assay. C3H10T1/2 cells were plated into 384 well plates at a concentration of 5000 cells/well in DMEM/10% FBS. The following day the media was changed to 20% conditioned media (low serum media DMEM/2% FBS+Shh ligand). Compounds were solubilized in 100% DMSO to a concentration of 10 mM and then serially diluted three fold in 100% DMSO. The highest concentration in the cell plate was 30 μM and the lowest was 3 nM. The compounds were then added to the cells. Cell plates were incubated with the compound for 72 h and then assayed for alkaline phosphatase production using pNp as a substrate. Briefly, after 72 h of incubation, the media was aspirated from the cells and washed with 30 μl of PBS. PBS was aspirated off the cells and 15 μl of 1×RIPA cell lysis buffer is added on to the cells. The cell plates are then incubated at −80° C. for 30 minutes to insure proper cell lysis. The plates were then thawed back to RT. The substrate solution containing pNp at 1 mg/mL in diethanolamine buffer pH 9.8 was then added onto the lysed cells. The plates were incubated at 30° C. for color development and read at an absorbance of 405 nm. The percent inhibition and IC50 value was then calculated from the absorbance data using standard procedures.
As for `Cc1ccc(-c2c(C)nn(C)c2C)cc1NC(=O)c1ccc(OCc2ccccn2)cc1` [Example 35, N-[2-methyl-5-(1,3,5-trimethylpyrazol-4-yl)phenyl]-4-(pyridin-2-ylmethoxy)benzamide], the inhibition at 3 µM amounted to 76.8%.

Turning to `Cc1ccc(-c2cnn(CC(C)C)c2)cc1NC(=O)c1ccc(OCc2ccccn2)cc1` [Example 36, N-[2-methyl-5-[1-(2-methylpropyl)pyrazol-4-yl]phenyl]-4-(pyridin-2-ylmethoxy)benzamide], 3 µM produced 26.9% inhibition.

Turning to `Cc1ccc(-c2cc(C(F)(F)F)n[nH]2)cc1NC(=O)c1ccc(OCc2ccccn2)cc1` [Example 37, N-[2-methyl-5-[5-(trifluoromethyl)-2H-pyrazol-3-yl]phenyl]-4-(pyridin-2-ylmethoxy)benzamide], the inhibition at 3 µM was 38.2%.

`Cc1nnc(-c2ccc(C)c(NC(=O)c3ccc(OCc4ccccn4)cc3)c2)o1` [Example 38, N-(2-methyl-5-(5-methyl-1,3,4-oxadiazol-2-yl)phenyl)-4-(pyridin-2-ylmethoxy)benzamide] returned an inhibition at 3 µM of 24.2%.

Take `Cc1ccc(-c2nnc(C)n2C)cc1NC(=O)c1ccc(OCc2ccccn2)cc1` [Example 39, N-(5-(4,5-dimethyl-4H-1,2,4-triazol-3-yl)-2-methylphenyl)-4-(pyridin-2-ylmethoxy)benzamide]: the inhibition at 3 µM is 7.8%.

In turn, `Cc1nc(-c2ccc(C)c(NC(=O)c3ccc(OCc4ccccn4)cc3)c2)no1` [Example 40, N-(2-methyl-5-(5-methyl-1,2,4-oxadiazol-3-yl)phenyl)-4-(pyridin-2-ylmethoxy)benzamide] gave an inhibition at 3 µM of 6.5%.

`COc1cccc(COc2ccc(C(=O)Nc3cc(-c4ncc[nH]4)ccc3C)cc2)c1` [Example 41, N-(5-(1H-imidazol-2-yl)-2-methylphenyl)-4-(3-methoxybenzyloxy)benzamide] had an inhibition at 3 µM of 51.9%.

On to `COc1cc(COc2ccc(C(=O)Nc3cc(-c4nc(C)cn4C)ccc3C)cc2)cc(OC)c1` [Example 42, 4-[(3,5-dimethoxyphenyl)methoxy]-N-[5-(1,4-dimethylimidazol-2-yl)-2-methyl-phenyl]benzamide], for which at 3 µM the inhibition was 79.4%.

Molecule `COc1cc(COc2ccc(C(=O)Nc3cc(-c4nc(C)c[nH]4)ccc3C)cc2)cc(OC)c1` [Example 43, 4-[(3,5-dimethoxyphenyl)methoxy]-N-[2-methyl-5-(4-methyl-1H-imidazol-2-yl)phenyl]benzamide] displayed an inhibition at 3 µM of 81.4%.

`Cc1c[nH]c(-c2ccc(C)c(NC(=O)c3ccc(OCc4ccccc4C#N)cc3)c2)n1` [Example 44, 4-[(2-cyanophenyl)methoxy]-N-[2-methyl-5-(4-methyl-1H-imidazol-2-yl)phenyl]benzamide] returned an inhibition at 3 µM of 80.7%.

For `Cc1cn(C)c(-c2ccc(C)c(NC(=O)c3ccc(OCc4ccccc4C#N)cc3)c2)n1` [Example 45, 4-[(2-cyanophenyl)methoxy]-N-[5-(1,4-dimethylimidazol-2-yl)-2-methyl-phenyl]benzamide], the inhibition at 3 µM was 80.3%.

For `Cc1ccc(-c2ncc[nH]2)cc1NC(=O)c1ccc(OCc2ccccc2C#N)cc1` [Example 46, 4-[(2-cyanophenyl)methoxy]-N-[5-(1H-imidazol-2-yl)-2-methyl-phenyl]benzamide], testing at 3 µM gave an inhibition of 81.9%.

`COc1cc(COc2ccc(C(=O)Nc3cc(-c4ncc[nH]4)ccc3C)cc2)cc(OC)c1` [Example 47, 4-[(3,5-dimethoxyphenyl)methoxy]-N-[5-(1H-imidazol-2-yl)-2-methyl-phenyl]benzamide] had an inhibition at 3 µM of 80.9%.

In turn, `COc1cc(COc2ccc(C(=O)Nc3cc(-c4ncc(C)n4C)ccc3C)cc2)cc(OC)c1` [Example 48, 4-[(3,5-dimethoxyphenyl)methoxy]-N-[5-(1,5-dimethylimidazol-2-yl)-2-methyl-phenyl]benzamide] came in with an inhibition at 3 µM of 81.5%.

`Cc1ccc(-c2ncc(C)n2C)cc1NC(=O)c1ccc(OCc2ccccc2C#N)cc1` [Example 49, 4-[(2-cyanophenyl)methoxy]-N-[5-(1,5-dimethylimidazol-2-yl)-2-methyl-phenyl]benzamide] had an inhibition at 3 µM of 82%.

Turning to `COc1cc(COc2ccc(C(=O)Nc3cc(-c4nccn4C)ccc3C)cc2)cc(OC)c1` [Example 50, 4-[(3,5-dimethoxyphenyl)methoxy]-N-[2-methyl-5-(1-methylimidazol-2-yl)phenyl]benzamide], 3 µM produced 80.5% inhibition.

On to `Cc1ccc(-c2nccn2C)cc1NC(=O)c1ccc(OCc2ccccc2C#N)cc1` [Example 51, 4-[(2-cyanophenyl)methoxy]-N-[2-methyl-5-(1-methylimidazol-2-yl)phenyl]benzamide], for which at 3 µM the inhibition was 82.1%.

The molecule `Cc1ccc(-c2cncn2C)cc1NC(=O)c1ccc(OCc2ccccc2C#N)cc1` [Example 52, 4-[(2-cyanophenyl)methoxy]-N-[2-methyl-5-(3-methylimidazol-4-yl)phenyl]benzamide] showed an inhibition at 3 µM of 79.8%.

`Cc1ccc(-c2cn(C)cn2)cc1NC(=O)c1ccc(OCc2ccccc2C#N)cc1` [Example 53, 4-[(2-cyanophenyl)methoxy]-N-[2-methyl-5-(1-methylimidazol-4-yl)phenyl]benzamide] returned an inhibition at 3 µM of 80.4%.

The molecule `Cc1ccc(-c2nc[nH]c2C)cc1NC(=O)c1ccc(OCc2ccccc2C#N)cc1` [Example 54, 4-[(2-cyanophenyl)methoxy]-N-[2-methyl-5-(5-methyl-1H-imidazol-4-yl)phenyl]benzamide] registered an inhibition at 3 µM of 77.5%.

Molecule `Cc1ccc(-c2cnc(C)n2C)cc1NC(=O)c1ccc(OCc2ccccc2C#N)cc1` [Example 55, 4-[(2-cyanophenyl)methoxy]-N-[5-(2,3-dimethylimidazol-4-yl)-2-methyl-phenyl]benzamide] showed an inhibition at 3 µM of 84.3%.

On to `COc1ccnc(COc2ccc(C(=O)Nc3cc(-c4ncc[nH]4)ccc3C)cc2)c1OC` [Example 56, 4-[(3,4-dimethoxypyridin-2-yl)methoxy]-N-[5-(1H-imidazol-2-yl)-2-methylphenyl]benzamide], for which the inhibition at 3 µM amounted to 67.4%.

`Cc1ccc(-c2ncc[nH]2)cc1NC(=O)c1ccc(OCc2cc3c(cc2Cl)OCO3)cc1` [Example 57, 4-[(6-chloro-1,3-benzodioxol-5-yl)methoxy]-N-[5-(1H-imidazol-2-yl)-2-methylphenyl]benzamide] displayed an inhibition at 3 µM of 73.6%.

On to `Cc1ccc(-c2ncc[nH]2)cc1NC(=O)c1ccc(OCc2ccccc2)cc1` [Example 58, N-(5-(1H-imidazol-2-yl)-2-methylphenyl)-4-(benzyloxy)benzamide], for which testing at 3 µM gave an inhibition of 86.2%.

For the molecule `Cc1ccc(-c2ncc[nH]2)cc1NC(=O)c1ccc(OCc2ccc(F)cc2)cc1` [Example 59, 4-[(4-Fluorophenyl)methoxy]-N-[5-(1H-imidazol-2-yl)-2-methylphenyl]benzamide], the inhibition at 3 µM worked out at 82.5%.

`Cc1ccc(-c2ncc[nH]2)cc1NC(=O)c1ccc(OCc2ccc(S(C)(=O)=O)cc2)cc1` [Example 60, N-[5-(1H-imidazol-2-yl)-2-methylphenyl]-4-{[4-(methylsulfonyl)benzyl]oxy}benzamide] registered an inhibition at 3 µM of 79.7%.

Take `Cc1ccc(-c2ncc[nH]2)cc1NC(=O)c1ccc(OCc2cccc(C#N)c2)cc1` [Example 61, 4-[(3-cyanobenzyl)oxy]-N-[5-(1H-imidazol-2-yl)-2-methylphenyl]benzamide]: testing at 3 µM gave an inhibition of 82.1%.

Regarding `Cc1ccc(-c2ncc[nH]2)cc1NC(=O)c1ccc(OCc2ccc(CO)cc2)cc1` [Example 62, 4-{[4-(hydroxymethyl)benzyl]oxy}-N-[5-(1H-imidazol-2-yl)-2-methylphenyl]benzamide], at 3 µM the inhibition was 76.9%.

In the case of `COc1ccccc1COc1ccc(C(=O)Nc2cc(-c3ncc[nH]3)ccc2C)cc1` [Example 63, N-[5-(1H-imidazol-2-yl)-2-methylphenyl]-4-[(2-methoxybenzyl)oxy]benzamide], the inhibition at 3 µM was found to be 79.8%.

`Cc1ccc(-c2ncc[nH]2)cc1NC(=O)c1ccc(OCc2ccccc2C(F)(F)F)cc1` [Example 64, N-[5-(1H-imidazol-2-yl)-2-methylphenyl]-4-{[2-(trifluoromethyl)benzyl]oxy}benzamide] came in with an inhibition at 3 µM of 79.6%.

With `Cc1ccc(-c2ccccc2)cc1NC(=O)c1ccc(OCc2ccccn2)cc1` [Example 65, N-(2-methyl-5-phenyl-phenyl)-4-(pyridin-2-ylmethoxy)benzamide], the inhibition at 3 µM came to 50%.

As to `Cc1cn(C)c(-c2ccc(C)c(NC(=O)c3ccc(OCc4cccc(OCCN5CCOCC5)c4)cc3)c2)n1` [Example 66, N-[5-(1,4-dimethyl-1H-imidazol-2-yl)-2-methylphenyl]-4-{[3-(2-morpholin-4-ylethoxy)benzyl]oxy}benzamide], the inhibition at 3 µM was determined as 69.6%.

In the case of `Cc1cc(C)c(-c2ncc[nH]2)cc1NC(=O)c1ccc(OCc2ccccn2)cc1` [Example 67, N-[5-(1H-imidazol-2-yl)-2,4-dimethylphenyl]-4-(pyridin-2-ylmethoxy)benzamide], the inhibition at 3 µM worked out at 77.1%.

The molecule `Cc1cc(C)c(-c2nc3ccccc3[nH]2)cc1NC(=O)c1ccc(OCc2ccccn2)cc1` [Example 68, N-[5-(1H-benzimidazol-2-yl)-2,4-dimethylphenyl]-4-(pyridin-2-ylmethoxy)benzamide] had an inhibition at 3 µM of 83.3%.
